# Patent US20250154198A1, “PEPTIDE INHIBITORS OF INTERLEUKIN-23 RECEPTOR” (Zealand Pharma A/S, priority 2021, published 2025)
# Where two headings read alike, the source gives them in different places. *1 amine or outer side, *2 acyl side, *3 side chain or, on linkers, in order; H or OH if unused. Where a SMILES comes first, the peptide text is derived from it. Bridges are numbered along the chain shown (N, C = ends). [ ]: non-standard residue; d: D form. Trp(6-F) = N[C@@H](Cc1c[nH]c2cc(F)ccc12)C(=O)O; Lys(N3) = [N-]=[N+]=NCCCC[C@H](N)C(=O)O; 2Nal = N[C@@H](Cc1ccc2ccccc2c1)C(=O)O; AEF = NCCOc1ccc(C[C@H](N)C(=O)O)cc1; X1 = O=C(Cc1ccc(CN[*:1])cc1)[*:2]; 3Pal = N[C@@H](Cc1cccnc1)C(=O)O; αMeL = CC(C)C[C@](C)(N)C(=O)O; CH2COCH2 = O=C(C[*:1])C[*:2]; Pra = C#CC[C@H](N)C(=O)O; Dab = NCC[C@H](N)C(=O)O
# T1: human IL-23R (Homo sapiens, UniProt Q5VWK5)
# T1 construct: UniProtKB—Q5VWK5, amino acids 22-629; secretion signal of the plasmid (Promega N1371); expressed in transfected cells
# T1 sequence (Q5VWK5 22-629): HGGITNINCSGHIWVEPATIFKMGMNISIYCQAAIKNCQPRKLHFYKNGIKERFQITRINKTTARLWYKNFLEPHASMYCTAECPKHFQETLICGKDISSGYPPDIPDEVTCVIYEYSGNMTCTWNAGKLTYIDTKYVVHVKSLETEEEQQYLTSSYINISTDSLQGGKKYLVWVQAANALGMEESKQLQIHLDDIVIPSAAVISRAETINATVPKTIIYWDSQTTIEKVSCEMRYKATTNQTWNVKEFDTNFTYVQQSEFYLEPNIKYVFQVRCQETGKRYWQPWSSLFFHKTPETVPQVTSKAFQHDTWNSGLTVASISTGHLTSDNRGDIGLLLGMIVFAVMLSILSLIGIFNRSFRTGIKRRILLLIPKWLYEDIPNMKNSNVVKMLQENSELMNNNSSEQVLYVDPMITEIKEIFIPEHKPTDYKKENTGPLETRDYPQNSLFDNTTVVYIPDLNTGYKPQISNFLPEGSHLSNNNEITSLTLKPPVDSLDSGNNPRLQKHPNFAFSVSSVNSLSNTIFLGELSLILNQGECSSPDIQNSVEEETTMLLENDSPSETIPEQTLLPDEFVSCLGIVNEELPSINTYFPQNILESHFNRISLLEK
# T2: Nluc-IL23R fusion protein (human, UniProt Q5VWK5 22-629)
# T2 construct: range 22-629; Stably expressed in HEK293 cells; also called hIL-23R; human IL-23R fused to a Nanoluc luciferase enzyme; not shown: Nanoluc luciferase (Promega N1371 plasmid) at the N-terminus
# T2 sequence (looked up): T1 sequence (Q5VWK5 22-629)
# B1: Compound 34 (peptide)
# peptide: GKTCWECWWXES
# HELM: PEPTIDE1{[ac].G.K.T.C.W.E.C.W.W.[CC(C)C[C@](C)(N[*:1])C(=O)[*:2]].E.S.[am]}|CHEM1{[O=C(C[*:1])C[*:2]]}$PEPTIDE1,PEPTIDE1,3:R3-12:R3|PEPTIDE1,CHEM1,5:R3-1:R1|PEPTIDE1,CHEM1,8:R3-1:R2$$$V2.0
# SMILES: CC(=O)NCC(=O)N[C@H]1CCCCNC(=O)CC[C@@H](C(=O)N[C@@H](CO)C(N)=O)NC(=O)[C@](C)(CC(C)C)NC(=O)[C@H](Cc2c[nH]c3ccccc23)NC(=O)[C@H](Cc2c[nH]c3ccccc23)NC(=O)[C@@H]2CSCC(=O)CSC[C@H](NC(=O)[C@H]([C@@H](C)O)NC1=O)C(=O)N[C@@H](Cc1c[nH]c3ccccc13)C(=O)N[C@@H](CCC(=O)O)C(=O)N2
# B2: Compound 33 (peptide)
# peptide: Ac-CTCWECWW[αMeL]CS-NH2
# modifications: linker 1-10, 3-6 via CH2COCH2
# SMILES: CC(=O)N[C@H]1CSCC(=O)CSC[C@@H](C(=O)N[C@@H](CO)C(N)=O)NC(=O)[C@](C)(CC(C)C)NC(=O)[C@H](Cc2c[nH]c3ccccc23)NC(=O)[C@H](Cc2c[nH]c3ccccc23)NC(=O)[C@@H]2CSCC(=O)CSC[C@H](NC(=O)[C@H]([C@@H](C)O)NC1=O)C(=O)N[C@@H](Cc1c[nH]c3ccccc13)C(=O)N[C@@H](CCC(=O)O)C(=O)N2
# Experiments:
# human IL-23R = molecular target: T1, human IL-23R; assay: Binding assay (NanoBRET displacement of fluorophore-labelled reference compound) for estimating binding affinity to human IL-23R; details: for IL-23R inhibitory activity (in words): with reference to Ki and IC50 data of the Examples
# [1] = Peptide stability in simulated gastric fluid (SGF); format: in vitro ADME; details: pig
# Experimental: Determination of Peptide Stability in Simulated Gastric Fluid (SGF) and Simulated Intestinal Fluid (SIF)
# SGF was prepared by dissolving sodium chloride (0.2 g) in 50 mL of water. A volume of 0.7 mL of 10 M HCl was added to adjust the pH of the solution to 1.2 and the volume made up to 100 mL with water. […] SIF was prepared by dissolving monobasic potassium phosphate (0.68 g) in 50 mL of water and adjusting the pH to 6.8 with 1 M NaOH. The volume was subsequently made up to 100 mL with water. 200 mg porcine pancreatin (P1625, Sigma Aldrich) was gently dissolved into 20 mL preheated (37° C.) solution (10 g/L) immediately prior to the incubation.
# The incubation was performed at 37° C. with gentle shaking. […] After the last timepoint, the sampling plate was mixed for 10 min on a shaking table and centrifuged 10 min at 2200 g. 70 μL resulting supernatant was diluted with 150 μL water, mixed and centrifugated before analysis by liquid chromatography high resolution mass spectrometry. […] Percent remaining at each timepoint was calculated relative to timepoint zero based on absolute peak areas.
# [2] = molecular target: IL-23 mediated phospho-STAT3 formation in DB cells (Homo sapiens, UniProt Q5VWK5); assay: Functional inhibition of IL-23 mediated STAT3 signalling (phospho-STAT3 Tyr705 MSD) in DB cells; format: cell-based; details: DB cells, read-out: IC50 (pSTAT3)
# Method in brief: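 DB cells preincubated 15 min with compound at 37° C, then stimulated 90 min with hIL-23 at EC80. Lysate phospho-STAT3 measured by MSD, normalized to IL-23-alone and buffer wells; IC50 and maximal % inhibition from 4PL fit.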
# [3] = Peptide stability in simulated intestinal fluid (SIF); format: in vitro ADME; details: pig
# Method in brief: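 Peptides incubated at 37°C with gentle shaking in SGF (NaCl, HCl, pH 1.2) or SIF (phosphate pH 6.8 with 10 g/L porcine pancreatin). Samples analysed by LC-HRMS; percent remaining at each timepoint calculated from absolute peak areas relative to time zero.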
# [4] = molecular target: T2, Nluc-IL23R fusion protein; assay: BRET displacement of TAMRA-labelled peptide, Nluc-IL23R membranes
# Experimental: The plate was sealed with light impermeable plate seals, and incubated on a orbital shaker 400 rpm for 2 hours at room temperature. To determine the BRET ratio, the plate seal was removed and 25 μL of the Nanoluc substrate (Promega N1572) diluted 1:500 was added to each well and incubated for 1-2 minutes on an orbital shaker at 400 rpm. […] The BRET ratio was calculated as the fluorescence from the TAMRA/nanoluc bioluminescence. The IC₅₀ for each compound was determined by computer-aided curve fitting using a 4-parameter logistic (4PL) non-linear model.
# [5] = simulated gastric fluid (SGF) with porcine pepsin, Table 3-3, porcine pepsin, pH 1.2, 37° C., 10 μM, 1 h, read-out: SGF (% remaining 1 h)
# [6] = simulated gastric fluid (SGF) with porcine pepsin, Table 3-3, porcine pepsin, pH 1.2, 37° C., 10 μM, 4 h, read-out: SGF (% remaining 4 h)
# [7] = simulated intestinal fluid (SIF) with porcine pancreatin, Table 3-2, porcine pancreatin, pH 6.8, 37° C., 10 μM, 1 h, read-out: SIF (% remaining 1 h)
# [8] = simulated intestinal fluid (SIF) with porcine pancreatin, Table 3-2, porcine pancreatin, pH 6.8, 37° C., 10 μM, 4 h, read-out: SIF (% remaining 4 h)
# [9] = Table 3-1, read-out: Ki hIL-23R
molecule,measurement,setting,value
"CC(=O)N[C@@H](CC(=O)O)C(=O)N[C@H]1CCCCNC(=O)CC[C@@H](C(=O)N[C@@H](CCCNC(=N)N)C(N)=O)NC(=O)[C@H](CC(C)C)NC(=O)[C@H](Cc2c[nH]c3ccccc23)NC(=O)[C@H](Cc2c[nH]c3ccccc23)NC(=O)[C@@H]2CSCC(=O)CSC[C@H](NC(=O)[C@H](CO)NC1=O)C(=O)N[C@@H](Cc1c[nH]c3ccccc13)C(=O)N[C@@H](CCC(N)=O)C(=O)N2 [Compound 7, [Ac]-DK(1c)SC(2a)WQC(2a)WWLE(1c)R-[NH2]] (HELM PEPTIDE1{[ac].D.K.S.C.W.Q.C.W.W.L.E.R.[am]}|CHEM1{[O=C(C[*:1])C[*:2]]}$PEPTIDE1,PEPTIDE1,3:R3-12:R3|PEPTIDE1,CHEM1,5:R3-1:R1|PEPTIDE1,CHEM1,8:R3-1:R2$$$V2.0)","potency depending on location of the amide bond in the [2,11] lactam bridge (in words)","human IL-23R; Compound 7 (amide closer to position 11) versus Compound 4 (closer to position 2), Table 2-3b",more active
same,Ki,"human IL-23R; Table 2-3b, read-out: Ki IL-23R",26.8 nM
same,"remaining at 1 h, 10 μM",[1]; [5],0%
same,"remaining at 4 h, 10 μM",[1]; [6],0%
same,IC50,[2]; Table 2-3b,159 nM
same,"remaining at 1 h, 10 μM",[3]; [7],0%
same,"remaining at 4 h, 10 μM",[3]; [8],0%
"CC(C)C[C@]1(C)NC(=O)[C@H](Cc2c[nH]c3cc(F)ccc23)NC(=O)[C@H](Cc2ccc(OCCN)cc2)NC(=O)[C@@H]2CSCC(=O)CSC[C@H](NC(=O)[C@H](CO)NC(=O)Cc3ccc(cc3)CNC(=O)CC[C@@H](C(=O)N[C@@H](CCN)C(=O)N[C@@H](Cc3cccnc3)C(N)=O)NC1=O)C(=O)N[C@@H](Cc1c[nH]c3ccccc13)C(=O)N[C@@H](CCC(N)=O)C(=O)N2 [Compound 121, [4-Aminomethyl-phenylacetyl](1c)*SC(2a)WQC(2a)[Y(2-aminoethoxy)][6-F-Trp][2-Me-Leu]E(1c)[Dab][3-(3-Pyridyl)-Ala]-[NH2]] ([X1]SCWQC[AEF][Trp(6-F)][αMeL]E[Dab][3Pal]-NH2; linker 3-6 via CH2COCH2; lactam N-10)",Ki,human IL-23R; [9],0.00954 nM
same,"remaining at 1 h, 10 μM",[1]; pH 1.2,82%
same,"remaining at 4 h, 10 μM",[1]; pH 1.2,80%
same,"remaining at 1 h, 10 μM",[3]; pH 6.8,57%
same,"remaining at 4 h, 10 μM",[3]; pH 6.8,6%
"CC(C)C[C@]1(C)NC(=O)[C@H](Cc2ccc3ccccc3c2)NC(=O)[C@H](Cc2ccc(OCCN)cc2)NC(=O)[C@@H]2CCCNC(=O)CC[C@H](NC(=O)[C@H](CO)NC(=O)Cc3ccc(cc3)CNC(=O)CC[C@@H](C(=O)N[C@@H](CCN)C(=O)N[C@@H](Cc3cccnc3)C(N)=O)NC1=O)C(=O)N[C@@H](Cc1c[nH]c3ccccc13)C(=O)N[C@@H](CCC(N)=O)C(=O)N2 [Compound 124, [4-Aminomethyl-phenylacetyl](1c)*SE(2c)WQ[Orn](2c)[Y(2-aminoethoxy)][2-Nal][2-Me-Leu]E(1c)[Dab][3-(3-Pyridyl)-Ala]-[NH2]]",Ki,human IL-23R; [9],0.0107 nM
same,"remaining at 4 h, 10 μM",[1]; [6],89%
same,"remaining at 1 h, 10 μM",[3]; [7],35%
same,"remaining at 4 h, 10 μM",[3]; [8],0%
"CC(=O)N[C@@H](CC(=O)O)C(=O)N[C@H]1CCC(=O)NCCCC[C@@H](C(=O)N[C@@H](CCCNC(=N)N)C(N)=O)NC(=O)[C@H](CC(C)C)NC(=O)[C@H](Cc2c[nH]c3ccccc23)NC(=O)[C@H](Cc2c[nH]c3ccccc23)NC(=O)[C@@H]2CSCC(=O)CSC[C@H](NC1=O)C(=O)N[C@@H](Cc1c[nH]c3ccccc13)C(=O)N[C@@H](CCC(N)=O)C(=O)N2 [Ref 5, [Ac]-DE(1c)C(2a)WQC(2a)WWLK(1c)R-[NH2], reference compound] (HELM PEPTIDE1{[ac].D.E.C.W.Q.C.W.W.L.K.R.[am]}|CHEM1{[O=C(C[*:1])C[*:2]]}$PEPTIDE1,PEPTIDE1,3:R3-11:R3|PEPTIDE1,CHEM1,4:R3-1:R1|PEPTIDE1,CHEM1,7:R3-1:R2$$$V2.0)",Ki,human IL-23R; [9],> 1000 nM
same,IL-23R inhibitory activity (in words),human IL-23R,inactive
same,"remaining at 1 h, 10 μM",[1]; [5],1%
same,"remaining at 4 h, 10 μM",[1]; [6],0%
same,IC50,[2]; Table 3-1,> 1000 nM
same,"remaining at 1 h, 10 μM",[3]; [7],0%
same,"remaining at 4 h, 10 μM",[3]; [8],0%
"CC(=O)N[C@@H](CC(=O)O)C(=O)N[C@H]1CCC(=O)NCCCC[C@@H](C(=O)N[C@@H](CCCNC(=N)N)C(N)=O)NC(=O)[C@H](CC(C)C)NC(=O)[C@H](Cc2c[nH]c3ccccc23)NC(=O)[C@H](Cc2c[nH]c3ccccc23)NC(=O)[C@@H]2CSCC(=O)CSC[C@H](NC(=O)[C@H](CO)NC1=O)C(=O)N[C@@H](Cc1c[nH]c3ccccc13)C(=O)N2 [Ref 6, [Ac]-DE(1c)SC(2a)WC(2a)WWLK(1c)R-[NH2], reference compound] (HELM PEPTIDE1{[ac].D.E.S.C.W.C.W.W.L.K.R.[am]}|CHEM1{[O=C(C[*:1])C[*:2]]}$PEPTIDE1,PEPTIDE1,3:R3-11:R3|PEPTIDE1,CHEM1,5:R3-1:R1|PEPTIDE1,CHEM1,7:R3-1:R2$$$V2.0)",Ki,human IL-23R; [9],> 1000 nM
same,IL-23R inhibitory activity (in words),human IL-23R,inactive
same,"remaining at 1 h, 10 μM",[1]; [5],0%
same,"remaining at 4 h, 10 μM",[1]; [6],0%
same,IC50,[2]; Table 3-1,> 1000 nM
same,"remaining at 1 h, 10 μM",[3]; [7],0%
same,"remaining at 4 h, 10 μM",[3]; [8],0%
B1,Ki,[4],65 nM
Ac-DKS[Lys(N3)]WQ[Pra]W[2Nal]LER-NH2 (lactam 2-11; triazole 4-7) [Compound 23],Ki,[4],117 nM
B2,Ki,[4],189 nM
"H-DCSCWECWWLCR-NH2 (linker 2-11, 4-7 via CH2COCH2) [Compound 3]",Ki,[4],205 nM
